In ChEMBL document CHEMBL2016443, “From ApoA1 upregulation to BET family bromodomain inhibition: discovery of I-BET151” (Bioorg Med Chem Lett, 2012):
The source made the active and inactive calls. No cut-off for these calls is given here.

How the values were obtained:
PBMC [1] = assay: Inhibition of LPS-stimulated IL-6 production in human PBMC; type: functional, cell-based
Cytochrome P450 2C9 = Cytochrome P450 2C9 (Homo sapiens, UniProt P11712); assay: Inhibition of CYP2C9; type: ADME
THP-1 = assay: Antiinflammatory activity in human THP1 cells; type: functional, cell-based
HepG2 = assay: Upregulation of ApoA1 expression in human HepG2 cells assessed as concentration required to increase 70% of luciferase activity after 18 hrs by luciferase reporter gene assay; type: functional
PBMC [2] = assay: Inhibition of LPS-stimulated TNFalpha production in human PBMC; type: functional, cell-based
Cytochrome P450 3A4 = Cytochrome P450 3A4 (Homo sapiens, UniProt P08684); assay: Inhibition of CYP3A4; type: ADME
Chain of Cytochrome P450 3A4 (P08684 whole entry): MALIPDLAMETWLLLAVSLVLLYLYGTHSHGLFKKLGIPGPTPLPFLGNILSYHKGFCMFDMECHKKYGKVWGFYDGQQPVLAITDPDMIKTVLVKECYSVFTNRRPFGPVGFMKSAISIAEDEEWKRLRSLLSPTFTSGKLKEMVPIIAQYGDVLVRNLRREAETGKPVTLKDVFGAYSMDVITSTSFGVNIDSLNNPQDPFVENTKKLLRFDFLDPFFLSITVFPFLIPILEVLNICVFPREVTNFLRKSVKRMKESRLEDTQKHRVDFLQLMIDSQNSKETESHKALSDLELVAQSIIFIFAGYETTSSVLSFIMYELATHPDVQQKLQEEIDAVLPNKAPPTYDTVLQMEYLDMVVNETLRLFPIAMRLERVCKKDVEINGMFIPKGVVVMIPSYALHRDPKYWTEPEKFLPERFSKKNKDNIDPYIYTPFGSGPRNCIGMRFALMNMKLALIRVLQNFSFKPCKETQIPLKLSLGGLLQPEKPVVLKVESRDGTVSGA

Mus musculus [3] = assay: Antiinflammatory activity in LPS-stimulated acute inflammation BALB/c mouse model assessed as inhibition of plasma TNF-alpha level at 10 mg/kg, po administered 2 hrs before LPS challenge; type: functional
Mus musculus [4] = assay: Antiinflammatory activity in LPS-stimulated acute inflammation BALB/c mouse model assessed as inhibition of plasma PAI-1 level at 10 mg/kg, po administered 2 hrs before LPS challenge; type: functional
Mus musculus [5] = assay: Antiinflammatory activity in LPS-stimulated acute inflammation BALB/c mouse model assessed as inhibition of plasma MCP-1 level at 10 mg/kg, po administered 2 hrs before LPS challenge; type: functional
Mus musculus [6] = assay: Antiinflammatory activity in LPS-stimulated acute inflammation BALB/c mouse model assessed as inhibition of plasma IL-6 level at 10 mg/kg, po administered 2 hrs before LPS challenge; type: functional
[7] = Clearance in iv dosed CD rat blood after 1 hr; type: ADME, organism-based; conditions: whole blood
Hepatocyte [8] = assay: Bioactivation in human hepatocytes assessed as compound epoxidation; type: cell-based
[9] = Half life in CD rat; type: ADME, organism-based; conditions: CD, in vivo
Rattus norvegicus = species: Rattus norvegicus; assay: Dose normalized AUC (0 to infinity ) in CD rat; type: ADME, organism-based; conditions: in vivo
Hepatocyte [10] = assay: Bioactivation in human hepatocytes assessed as glutathione trapping; type: cell-based
Salmonella typhimurium = assay: Mutagenic activity in Salmonella typhimurium by Ames assay; type: toxicity, organism-based; conditions: salmonella enterica subsp. enterica serovar typhimurium
Hepatocyte [11] = assay: Bioactivation in rat hepatocytes assessed as glutathione trapping; type: cell-based
Hepatocyte [12] = assay: Bioactivation in rat hepatocytes assessed as compound epoxidation; type: cell-based
[13] = Oral bioavailability in CD rat; type: ADME, organism-based; conditions: in vivo
[14] = Volume of distribution at steady state in CD rat; type: ADME, organism-based; conditions: in vivo, read-out: Vdss

Chain of Cytochrome P450 2C9 (P11712 whole entry): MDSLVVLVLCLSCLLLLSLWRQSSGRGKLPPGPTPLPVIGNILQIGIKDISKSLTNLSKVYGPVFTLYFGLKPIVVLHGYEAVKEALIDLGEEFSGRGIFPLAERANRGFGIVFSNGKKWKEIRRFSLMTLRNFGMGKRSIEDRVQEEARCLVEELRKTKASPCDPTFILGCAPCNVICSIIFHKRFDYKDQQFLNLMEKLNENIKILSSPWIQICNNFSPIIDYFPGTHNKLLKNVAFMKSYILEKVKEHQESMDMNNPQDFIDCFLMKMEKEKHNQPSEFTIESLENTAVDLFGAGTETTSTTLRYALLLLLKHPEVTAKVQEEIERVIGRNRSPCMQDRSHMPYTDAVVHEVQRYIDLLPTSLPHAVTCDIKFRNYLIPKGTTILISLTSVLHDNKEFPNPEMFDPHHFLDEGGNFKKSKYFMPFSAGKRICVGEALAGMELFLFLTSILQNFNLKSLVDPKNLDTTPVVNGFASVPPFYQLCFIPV

| IC50 (Cytochrome P450 2C9) [nM] | IC50 (Cytochrome P450 3A4) [nM] | Structure (SMILES) | Activity (PBMC [1]) | Activity (THP-1) | EC170 (HepG2) [µM] | Activity (PBMC [2]) | other results |
| --- | --- | --- | --- | --- | --- | --- | --- |
| 10000 | 13000 | Cc1noc(C)c1-c1ccc2c(Nc3ccccc3C(C)(C)C)c(C(=O)O)cnc2c1 | Active | Active | 0.32 | Active | – |
| – | – | Cc1cc2c(Nc3ccccc3C(C)(C)C)c(C(=O)O)cnc2cc1-c1c(C)noc1C | Active | Active | 1.99 | Active | – |
| – | – | COc1cc2c(NCc3ccccn3)c(C(N)=O)cnc2cc1-c1c(C)noc1C | Active | Active | 2.57 | Active | – |
| – | – | Cc1noc(C)c1-c1ccc2c(Nc3ccccc3F)c(C(N)=O)cnc2c1 | Active | Active | 0.5 | Active | – |
| 1000 | 1500 | COc1cc2c(cc1-c1c(C)noc1C)ncc1[nH]c(=O)n([C@H](C)c3ccccc3)c12 | Active | Active | 0.01 | Active | – |
| – | – | CCNC(=O)C[C@@H]1N=C(c2ccc(Cl)cc2)c2cc(OC)ccc2-n2c(C)nnc21 [MOLIBRESIB] | – | – | 0.2 | – | – |
| – | – | COc1cc2c(NCc3ccccc3)c(C(N)=O)cnc2cc1-c1c(C)noc1C | Active | Active | 1.07 | Active | – |
| 700 | 2000 | Cc1noc(C)c1-c1ccc2c(Nc3ccccc3C(C)(C)C)c(C(N)=O)cnc2c1 | Active | Active | 0.63 | Active | – |
| 8500 | 1800 | COc1cc2c(Nc3ccccc3C(=O)N3CCCCC3)c(C(N)=O)cnc2cc1-c1c(C)noc1C | Active | Active | 0.13 | Active | – |
| – | – | Cc1noc(C)c1-c1ccc2c(Nc3ccccc3Cl)c(C(N)=O)cnc2c1 | Active | Active | 1 | Active | – |
| 2400 | 2400 | CC[C@H](c1ccccc1)n1c(=O)[nH]c2cnc3cc(-c4c(C)noc4C)c(OC)cc3c21 | Active | Active | 0.03 | Active | – |
| – | – | COc1cc2c(NC3CCCCC3)c(C(N)=O)cnc2cc1-c1c(C)noc1C | Active | Active | 0.45 | Active | – |
| 1200 | – | COc1cc2c(cc1-c1c(C)noc1C)ncc1[nH]c(=O)n(Cc3ccccc3)c12 | Active | Active | 0.06 | Active | – |
| 900 | 1700 | COc1cc2c(cc1-c1c(C)noc1C)ncc1[nH]c(=O)n(-c3ccccc3C(C)(C)C)c12 | Active | Active | 0.05 | Active | – |
| – | – | Cc1noc(C)c1-c1ccc2c(Nc3ccccc3)c(C(=O)NCc3ccccc3)cnc2c1 | Active | Active | 1.44 | Active | – |
| 5100 | 1500 | COc1cc2c(Nc3ccccc3N3CCOCC3)c(C(N)=O)cnc2cc1-c1c(C)noc1C | Active | Active | 0.09 | Active | – |
| – | – | Cc1noc(C)c1-c1ccc2c(Nc3ccccc3C#N)c(C(N)=O)cnc2c1 | Active | Active | 1.02 | Active | – |
| 1300 | 2000 | COc1cc2c(cc1-c1c(C)noc1C)ncc1[nH]c(=O)n(C(C)c3ccccc3)c12 (racemic) | Active | Active | 0.03 | Active | – |
| 9900 | 3100 | COc1cc2c(Nc3ccccc3C(=O)c3ccccn3)c(C(N)=O)cnc2cc1-c1c(C)noc1C | Active | Active | 0.2 | Active | – |

| IC50 (Cytochrome P450 2C9) [nM] | IC50 (Cytochrome P450 3A4) [nM] | Structure (SMILES) | Activity (PBMC [1]) | Activity (THP-1) | EC170 (HepG2) [µM] | Activity (PBMC [2]) | other results |
| --- | --- | --- | --- | --- | --- | --- | --- |
| – | – | COc1cc2c(cc1-c1c(C)noc1C)ncc1[nH]c(=O)n(-c3ccccc3F)c12 | Active | Active | 0.76 | Active | – |
| – | – | C[C@]12C=CC(=O)C=C1CC[C@@H]1[C@@H]2[C@@H](O)C[C@@]2(C)[C@H]1CC[C@]2(O)C(=O)CO [PREDNISOLONE] | – | – | – | – | inhibition in vivo at 10 mg/kg (Mus musculus [3]): 94%; inhibition in vivo at 10 mg/kg (Mus musculus [4]): 43%; inhibition in vivo at 10 mg/kg (Mus musculus [5]): 49%; inhibition in vivo at 10 mg/kg (Mus musculus [6]): 59% |
| 1200 | 1900 | COc1cc2c(Nc3ccccc3C(C)(C)C)c(C(N)=O)cnc2cc1-c1c(C)noc1C | Active | Active | 0.13 | Active | – |
| 600 | 4700 | COc1cc2c(Nc3ccccc3F)c(C(N)=O)cnc2cc1-c1c(C)noc1C | Active | Active | 0.3 | Active | – |
| – | – | Cc1noc(C)c1-c1ccc2c(Nc3ccccc3)c(C(=O)N(C)C)cnc2c1 | Active | Active | 7.08 | Active | – |
| – | – | Cc1noc(C)c1-c1ccc2c(Nc3ccccc3)ccnc2c1 | Active | Active | 4.27 | Active | – |
| – | – | Cc1noc(C)c1-c1ccc2c(Nc3ccccc3C(C)(C)C)c(C(=O)O)cnc2c1C | Active | Active | 1.05 | Active | – |
| 2800 | 3900 | COc1cc2c(Nc3cccc4cccnc34)c(C(N)=O)cnc2cc1-c1c(C)noc1C | Active | Active | 0.22 | Active | clearance [7]: 50 mL/min/kg; Drug metabolism (Hepatocyte [8]): Active; half-life [9]: 1.1 h; AUC/dose (Rattus norvegicus): 12 kg·min/L; Drug metabolism (Hepatocyte [10]): Active; Activity (Salmonella typhimurium): Toxic; Drug metabolism (Hepatocyte [11]): Active; Drug metabolism (Hepatocyte [12]): Active; bioavailability [13]: 59%; Vd [14]: 4 L/kg |
| – | – | Cc1ccccc1Nc1c(C(N)=O)cnc2cc(-c3c(C)noc3C)ccc12 | Active | Active | 0.44 | Active | – |
| > 33000 | > 33000 | Cc1noc(C)c1-c1ccc2c(Nc3ccccc3)c(C(=O)O)cnc2c1 | Active | Active | 1.74 | Active | – |
| – | – | COc1ccccc1Nc1c(C(N)=O)cnc2cc(-c3c(C)noc3C)ccc12 | Active | Active | 0.39 | Active | – |
| 2100 | 17000 | Cc1noc(C)c1-c1ccc2c(Nc3ccccc3)c(C(N)=O)cnc2c1 | Active | Active | 0.5 | Active | – |
| – | – | Cc1cccc(Nc2c(C(N)=O)cnc3cc(-c4c(C)noc4C)ccc23)c1 | Active | Active | 0.6 | Active | – |
| – | 12900 | COc1cc2c(cc1-c1c(C)noc1C)ncc1[nH]c(=O)n(Cc3ccccn3)c12 | Active | Active | – | Active | – |
| 2200 | 1900 | COc1cc2c(Nc3ccccc3CCN3CCOCC3)c(C(N)=O)cnc2cc1-c1c(C)noc1C | Active | Active | 0.09 | Active | – |
| – | – | COc1cc2c(Nc3ccccc3C(C)(C)C)c(C(=O)O)cnc2cc1-c1c(C)noc1C | Active | Active | 0.28 | Active | – |
| – | – | COc1cc2c(cc1-c1c(C)noc1C)ncc1[nH]c(=O)n([C@@H](C)c3ccccc3)c12 | Active | Active | 0.47 | Active | – |
| – | – | Cc1ccc(Nc2c(C(N)=O)cnc3cc(-c4c(C)noc4C)ccc23)cc1 | Active | Active | 1.05 | Active | – |
| 2300 | – | COc1cc2c(cc1-c1c(C)noc1C)ncc1[nH]c(=O)n(-c3ccccc3OC(F)(F)F)c12 | Active | Active | 0.09 | Active | – |
